Assay [1] concerns the target T1, Gastrin/cholecystokinin type B receptor (Mus musculus, UniProt P56481).
T1 sequence (P56481 whole entry): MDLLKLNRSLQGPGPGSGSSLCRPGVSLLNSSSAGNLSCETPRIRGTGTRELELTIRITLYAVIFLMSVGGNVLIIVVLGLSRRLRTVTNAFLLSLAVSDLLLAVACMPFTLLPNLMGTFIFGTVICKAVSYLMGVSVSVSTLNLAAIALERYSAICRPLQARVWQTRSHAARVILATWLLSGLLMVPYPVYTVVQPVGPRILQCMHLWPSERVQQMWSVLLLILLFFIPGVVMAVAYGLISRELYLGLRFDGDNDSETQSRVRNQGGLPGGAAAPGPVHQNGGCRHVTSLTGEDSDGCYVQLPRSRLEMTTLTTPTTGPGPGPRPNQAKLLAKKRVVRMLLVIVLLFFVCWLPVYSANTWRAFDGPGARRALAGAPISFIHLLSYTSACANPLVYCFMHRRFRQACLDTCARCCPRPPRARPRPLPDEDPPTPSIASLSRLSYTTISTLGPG
The assay is described as follows: Compound was tested for the inhibition of specific binding of [125I]bolton Hunter CCK-8 to Cholecystokinin type B receptor in mouse cerebral cortex. In kind it is tissue-based.

The target of assay [2] is T2, Cholecystokinin receptor type A (Rattus norvegicus, UniProt P30551).
T2 sequence (P30551 whole entry): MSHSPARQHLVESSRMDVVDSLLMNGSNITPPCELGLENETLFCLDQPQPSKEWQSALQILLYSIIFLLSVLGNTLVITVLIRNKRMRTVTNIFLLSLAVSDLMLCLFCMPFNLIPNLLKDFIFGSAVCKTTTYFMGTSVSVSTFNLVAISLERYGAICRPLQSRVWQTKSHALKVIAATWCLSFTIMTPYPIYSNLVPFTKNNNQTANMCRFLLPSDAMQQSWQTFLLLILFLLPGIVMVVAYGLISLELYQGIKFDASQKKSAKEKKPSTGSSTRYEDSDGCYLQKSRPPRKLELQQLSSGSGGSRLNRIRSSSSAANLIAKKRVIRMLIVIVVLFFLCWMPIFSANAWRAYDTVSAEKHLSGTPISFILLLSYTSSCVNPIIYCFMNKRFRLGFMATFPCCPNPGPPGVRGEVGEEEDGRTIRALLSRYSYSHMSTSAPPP
The assay is described as follows: Compound was tested for the inhibition of specific binding of [125I]bolton Hunter CCK-8 to Cholecystokinin type A receptor in the rat pancreas.

The values that follow come from ChEMBL document CHEMBL1127216, “Diastereoselective synthesis of cyclopropyl phenylalanines and their incorporation into dipeptides” (Bioorg Med Chem Lett, 1993).

Turning to `COC(=O)/C(=C/c1ccccc1)NC(=O)[C@@](C)(Cc1c[nH]c2ccccc12)NC(=O)OC1C2CC3CC(C2)CC1C3` (some centres undefined), in assay [1], the concentration for half-maximal inhibition (IC50) came out at 270 nM.
For the compound `COC(=O)[C@]1(NC(=O)[C@@](C)(Cc2c[nH]c3ccccc23)NC(=O)OC2C3CC4CC(C3)CC2C4)C[C@H]1c1ccccc1` (some centres undefined), the IC50 in assay [2] stood at 720 nM; in assay [1], 600 nM.
For `C[C@](Cc1c[nH]c2ccccc12)(NC(=O)OC1C2CC3CC(C2)CC1C3)C(=O)N/C(=C\c1ccccc1)C(=O)O` (some centres undefined) the same measures were 60 nM and 54 nM.
In the case of `COC(=O)[C@@]1(NC(=O)[C@@](C)(Cc2c[nH]c3ccccc23)NC(=O)OC2C3CC4CC(C3)CC2C4)C[C@H]1c1ccccc1` (some centres undefined), the figures for the IC50 in assay [2] and in assay [1] were 26 nM and 3.9 nM, respectively.
For `C[C@](Cc1c[nH]c2ccccc12)(NC(=O)OC1C2CC3CC(C2)CC1C3)C(=O)N[C@@]1(C(=O)O)C[C@H]1c1ccccc1` (some centres undefined) the same measures were 84 nM and 140 nM.

As a reminder, the IC50 is the concentration needed to halve the response being measured. Low values mean higher potency, high ones lower potency.
